The values below come from patent US8580955B2, “Purification method and production method for cellobiose” (Matsutani Chemical Industry Co., Ltd., priority 2005, dated 2013).

The nature of data set [1]: Determination of solubility of cellobiose (Karl Fisher moisture of supernatant). As to conditions: supernatant of 20% (w/v) solution after crystal formation, 100% minus moisture content. It counts as physicochemical. On the procedure: There was prepared a 20% (w/v) solution of a commercially available cellobiose (manufactured by Wako Pure Chemical Co., Ltd.), the resulting solution was introduced into a thermostatic chamber maintained at a temperature ranging from 10 to 60° C. to thus form crystals of cellobiose, thereafter the content of water present in the supernatant was determined using a Karl Fisher moisture meter and then the solubility was calculated by subtracting the moisture content from 100%.

A short description of data set [2]: Solubility in water expressed as dissolution time. It counts as physicochemical. As to conditions: for Dissolution Time: 10 g in 100 mL deionized water at 25 °C with stirring. On the procedure: The solubility (the rate of dissolution) of crystalline cellobiose in water may vary depending on the rates of the stereoisomers (the rates of the α- and β-anomers). For instance, when the cellobiose crystals are dissolved in water, the resulting solution is maintained at a high temperature falling within the range in which the solution is not boiled, preferably 80 to 95° C. for a time ranging from 0.5 to 2.0 hours and then the solution is dried while maintaining the same at that temperature, the ratio of the α-anomer is increased to thus give cellobiose powder improved in its solubility in water.
The cellobiose-containing sugar solution having a high content of cellobiose, prepared in Example 4 was concentrated to a solid content concentration of 20%, the sugar solution was then maintained at a temperature of 20° C., 60° C. or 80° C. for one hour and, immediately thereafter, the solution was dried in a spray dryer to thus give cellobiose powder. These powdery cellobiose products were inspected for the solubility in water and the distribution rate of anomers. In this respect, the distribution rate of anomers was determined using Gas Chromatograph GC14 available from Shimadzu Corporation which was equipped with a column: DB1701 (inner diameter: 0.25 mm; length: 30 m) available from J & W Company. More specifically, each sample (1.0 mg) was dissolved in 0.769 mL of pyridine, 0.077 mL of TMSC and 0.154 mL of HMDS were added to the resulting solution, the mixture was maintained at room temperature for one hour and then it was used in the gas chromatography analysis.

For the compound `O=C[C@H](O)[C@@H](O)[C@H](O[C@@H]1O[C@H](CO)[C@@H](O)[C@H](O)[C@H]1O)[C@H](O)CO` [Cellobiose, cellobiose], the “Solubility of Cellobiose” value is given as 13.5% in data set [1] (10 °C); 14.0% in data set [1] (20 °C); 14.7% in data set [1] (30 °C); 18.4% in data set [1] (40 °C); 22.9% in data set [1] (50 °C); 26.3% in data set [1] (60 °C).

In the case of `O=C[C@H](O)[C@@H](O)[C@H](O[C@@H]1O[C@H](CO)[C@@H](O)[C@H](O)[C@H]1O)[C@H](O)CO` [Example 1, cellobiose], the “time required for the dissolution” value in data set [2] (10 g sample in 100 mL deionized water at 25 °C with stirring, crystals) stood at 12.5 min.

In the case of `O=C[C@H](O)[C@@H](O)[C@H](O[C@@H]1O[C@H](CO)[C@@H](O)[C@H](O)[C@H]1O)[C@H](O)CO` [Example 5, cellobiose], the “Dissolution Time” value in data set [2] (powder spray-dried from sugar solution kept at 20 °C for one hour) amounted to 8.0 min; in data set [2] (powder spray-dried from sugar solution kept at 60 °C for one hour) it was 4.0 min; in data set [2] (powder spray-dried from sugar solution kept at 80 °C for one hour), 2.5 min.
